In patent publication US4720546A (priority 1984, dated 1988):
≈ marks a conversion by molar mass, not a printed value.

Key:
Candida albicans = experiment: fungistatic activity test in Casiton agar test tubes (MIC), Candida albicans; format: cell-based; settings: 48 h, read-out: MIC values, C. albicans
Histoplasma capsulatum = experiment: microbe, parasite or virus in culture; format: cell-based; settings: 168 h, read-out: MIC values, H. capsulatum
in vivo = settings: mouse, po

Compound	MIC (Candida albicans)	MIC (Histoplasma capsulatum)	LD50 (in vivo)
[O-][S+]1CCN(c2ccc(OC[C@H]3CO[C@](Cn4ccnc4)(c4ccc(Cl)cc4Cl)O3)cc2)CC1 (relative stereo) [CH CH 1, cis-4-[4-[[2-(2,4-dichlorophenyl)-2-[(imidazol-1-yl)methyl]-1,3-dioxolan-4-yl]methoxy]-phenyl]-tetrahydro-4H-1,4-thiazine 1-oxide]	1 to 100 µg/mL (≈ 1.91 to 191 µM)	10 µg/mL (≈ 19.1 µM)	~1000 mg/kg
Clc1ccc([C@@]2(Cn3ccnc3)OC[C@H](COc3ccc(N4CCSCC4)cc3)O2)c(Cl)c1 (relative stereo) [CH CH 0, cis-4-[4-[[2-(2,4-dichlorophenyl)-2-[(imidazol-1-yl)methyl]-1,3-dioxolan-4-yl]methoxy]phenyl]tetrahydro-4H-1,4-thiazine]	1 to 100 µg/mL (≈ 1.97 to 197 µM)	10 µg/mL (≈ 19.7 µM)	~1000 mg/kg
O=S1(=O)CCN(c2ccc(OC[C@H]3CO[C@](Cn4cncn4)(c4ccc(Cl)cc4Cl)O3)cc2)CC1 (relative stereo) [CH N 2, cis-4-[4-[[2-(2,4-dichlorophenyl)-2-[(1H-1,2,4-triazol-1-yl)methyl]-1,3-dioxolan-4-yl]methoxy]phenyl]-tetrahydro-4H-1,4-thiazine 1,1-dioxide]	0.1 to 10 µg/mL (≈ 0.185 to 18.5 µM)	1 µg/mL (≈ 1.85 µM)	≥ 5000 mg/kg
O=S1(=O)CCN(c2ccc(OC[C@H]3CO[C@](Cn4cnnc4)(c4ccc(Cl)cc4Cl)O3)cc2)CC1 (relative stereo) [N CH 2, cis-4-[4-[[2-(2,4-dichlorophenyl)-2-[(4H-1,2,4-triazol-4-yl)methyl]-1,3-dioxolan--4-yl]methoxy]phenyl]-tetrahydro-4H-1,4-thiazine 1,1-dioxide]	0.1 to 10 µg/mL (≈ 0.185 to 18.5 µM)	> 100 µg/mL	≥ 4000 mg/kg
[O-][S+]1CCN(c2ccc(OC[C@H]3CO[C@](Cn4cncn4)(c4ccc(Cl)cc4Cl)O3)cc2)CC1 (relative stereo) [CH N 1, cis-4-[4-[[2-(2,4-dichlorophenyl)-2-[(1H-1,2,4-triazol-1-yl)methyl]-1,3-dioxolan-4-yl]methoxy]phenyl]-tetrahydro-4H-1,4-thiazine 1-oxide]	1 to 100 µg/mL (≈ 1.91 to 191 µM)	100 µg/mL (≈ 191 µM)	~4000 mg/kg
O=S1(=O)CCN(c2ccc(OC[C@H]3CO[C@](Cn4ccnc4)(c4ccc(Cl)cc4Cl)O3)cc2)CC1 (relative stereo) [CH CH 2, cis-4-[4-[[2-(2,4-dichlorophenyl)-2-[(imidazol-1-yl)methyl]-1,3-dioxolan-4-yl]methoxy]phenyl]-tetrahydro-4H-1,4-thiazine 1,1-dioxide]	0.1 to 1 µg/mL (≈ 0.186 to 1.86 µM)	1 µg/mL (≈ 1.86 µM)	≥ 4000 mg/kg
Clc1ccc([C@@]2(Cn3cncn3)OC[C@H](COc3ccc(N4CCSCC4)cc3)O2)c(Cl)c1 (relative stereo) [CH N 0, cis-4-[4-[[2-(2,4-dichlorophenyl)-2-[(1H-1,2,4-triazol-1-yl)methyl]-1,3-dioxolan-4-yl]methoxy]phenyl]-tetrahydro-4H-1,4-thiazine]	0.1 to 1 µg/mL (≈ 0.197 to 1.97 µM)	10 µg/mL (≈ 19.7 µM)	≥ 5000 mg/kg
